# Earlier results, collected in patent US20180177198A1, “PEDICULICIDE FORMULATION BASED ON EUCALYPTUS GLOBULUS ESSENTIAL OIL” (UNIVERSIDAD DE CONCEPCION, priority 2015, published 2018).
# Experiments:
# [1] = system: Pediculus humanus capitis resistant to permethrin
# [2] = not given; remark: listed apart in the source
# pediculosis = settings: in vivo
molecule,measurement,setting,value
α-dodelactone,repellent activity,[1],significant repellent activity
I-phellandrene,pediculicidal effectiveness compared with phenothrin or pyrethrum,lice,as effective as
CC1=CCC2CC1C2(C)C (stereo not drawn) [(−) α-pinene],pediculicidal effectiveness compared with phenothrin or pyrethrum,lice,as effective as
C=C1C(O)CC2CC1C2(C)C (centres unmarked) [(E)-pinocarveol],pediculicidal effectiveness compared with phenothrin or pyrethrum,lice,as effective as
"Cl[C@H]1[C@H](Cl)[C@@H](Cl)[C@@H](Cl)[C@H](Cl)[C@H]1Cl [Lindane, gamma benzene hexachloride]","toxicity range, can be lethal",adults,28 g
same,dose causing respiratory depression,"children below the age of 4, at 1%",5 mL
same,average life in the blood stream,[2]; in vivo,24 h
same,absorbed by passage into the blood stream,[2]; topical use,Approximately 10%
same,ovicidal activity,P. capitis,lacks ovicidal activity
c1ccc2[nH]c(-c3cscn3)nc2c1 [Thiabendazole],average life (elimination after percutaneous absorption),[2]; in vivo,70 min
CC1=CC=C(C(C)C)CC1 [α-terpinene],pediculicidal effectiveness compared with phenothrin or pyrethrum,lice,as effective as
CC1=CC[C@@H](C(C)(C)O)CC1 [1-α-terpineol],pediculicidal effectiveness compared with phenothrin or pyrethrum,lice,as effective as
c1ccc([C@H]2CN3CCSC3=N2)cc1 [Levamisol],effectiveness in treatment of pediculosis,pediculosis,19%
CC12CCC(CC1)C(C)(C)O2 [1.8-cineol],pediculicidal effectiveness compared with phenothrin or pyrethrum,lice,as effective as
